In EP0324875A1 (priority 1988, dated 1989):
Where two headings read alike, the source gives them in different places.

What was measured:
Grippe-Virus B/Lii = test: One-cycle test, virus yield in calf kidney cell culture; assay type: cell-based; conditions: MOI = 1
Description: Bei den Mehrcyclen- und Eincyclustests werden einschichtige Zellkulturen einer embryonalen Kalbsniere verwendet, welche mit Grippe-Viren A/H3N2/Texas/77 und B/Lii/MOI = 0.01-0.5 und 1-10 entsprechend infiziert werden. Die Ausbeute an infektiösem und hämaglutinierendem Virus wird in der 24sten Stunde (bei einem Mehrcyclentest) und entsprechend in der zwölften bis fünfzehnten Stunde (bei einem Eincyclustest) ausgerechnet. Der infektiöse Titer wird EID₅₀/ml bestimmt. Dieselben Versuche werden auch mit Virus FPV (Stamm Weibridge) in Zellen EHF(bei Ausrechnung des infektiösen Virus Plaque-bildenden Einheiten und des hämaglutinierenden Virus) durchgeführt. Die Wirksamkeit der Verbindungen wird im Bezug auf die Kontrolle (ohne Inhibitoren) ausgerechnet.

[1] = system: Virus FPV (Stamm Weibridge); assay type: cell-based, Grippe-Virus A/H7N7/; conditions: for inf. Titer in PBE/ml / XA-Titer: MOI = 0,5
Virus FPV = test: organism not typed; assay type: cell-based, Grippe-Virus A/H7N7/; conditions: 72 h; for Inhibitionsprozent (Verminderung der Plaquebildung): Zellen EHF
[2] = DD-13 18,7 mg/kg
[3] = read-out: Inhibitionsprozent (Verminderung der Plaquebildung)

In the case of CC(N)C12CC3CC(CC(C3)C1)C2 (stereo not drawn) [Rimantadin, reference compound], the “inf. Titer in log. EID50/ml” value (Grippe-Virus B/Lii; Rim. 5 mkg/ml alone, control 6,3) is reported as 6,0 log. EID50/ml, the XA-Titer (Grippe-Virus B/Lii; Rim. 5 mkg/ml alone, control 8) is reported as 4 and the “inf. Titer in log. EID50/ml” value (Grippe-Virus B/Lii; Rim. 25 mkg/ml alone, control 6,3) is reported as 4,7 log. EID50/ml. For the same compound, the XA-Titer (Grippe-Virus B/Lii; Rim. 25 mkg/ml alone, control 8) was 4, the “Verminderung der Ausbeute des hämaglutivierenden Virus (fold)” value ([1]; 5 mkg/ml Rimantadin alone) was 64 and the “inf. Titer in PBE/ml” value ([1]; Rim. 1 mkg/ml alone, control 1.7x10^7) was 4,2x10^4 PBE/ml. The XA-Titer ([1]; Rim. 1 mkg/ml alone, control 2048) was 32, the “inf. Titer in PBE/ml” value ([1]; Rim. 5 mkg/ml alone, control 1.7x10^7) was 4,4x10^4 PBE/ml and the XA-Titer ([1]; Rim. 5 mkg/ml alone, control 2048) was 32. For the same compound, the inhibition at 0.0001 µM (Virus FPV; [3]) was 3.52%, the inhibition at 0.001 µM (Virus FPV; [3]) was 18.4% and the inhibition at 0.01 µM (Virus FPV; [3]) was 48%. The “Inhibitionsprozent (Verminderung der Plaquebildung)” value (Virus FPV; Rimantadin 10^-9 M/1 alone) was 18,37 ± 14,19%.
For O=C1NCCCN1CN1CCOCC1 [DD-13], the “inf. Titer in log. EID50/ml” value (Grippe-Virus B/Lii; DD-13 12,5 (unit not given) alone, control without inhibitors 6,3) was 4,0 log. EID50/ml, the XA-Titer (Grippe-Virus B/Lii; DD-13 12,5 (unit not given) alone, control without inhibitors 8) was 8 and the “inf. Titer in log. EID50/ml” value (Grippe-Virus B/Lii; DD-13 25 (unit not given) alone, control 6,3) was 2,5 log. EID50/ml. For the same compound, the XA-Titer (Grippe-Virus B/Lii; DD-13 25 (unit not given) alone, control 8) was 4, the “inf. Titer in log. EID50/ml” value (Grippe-Virus B/Lii; DD-13 50 (unit not given) alone, control 6,3) was 2,0 log. EID50/ml and the XA-Titer (Grippe-Virus B/Lii; DD-13 50 (unit not given) alone, control 8) was 4. The “Verminderung der Ausbeute des hämaglutivierenden Virus (fold)” value ([1]; 60 mkg/ml DD-13 alone) was “viermalige”, the “inf. Titer in PBE/ml” value ([1]; DD-13 15 mkg/ml alone, control without inhibitors 1.7x10^7) was 5x10^6 PBE/ml and the XA-Titer ([1]; DD-13 15 mkg/ml alone, control without inhibitors 2048) was 1024. The “inf. Titer in PBE/ml” value ([1]; DD-13 30 mkg/ml alone, control 1.7x10^7) was 6,9x10^6 PBE/ml, the XA-Titer ([1]; DD-13 30 mkg/ml alone, control 2048) was 512 and the “inf. Titer in PBE/ml” value ([1]; DD-13 60 mkg/ml alone, control 1.7x10^7) was 3,9x10^6 PBE/ml. The XA-Titer ([1]; DD-13 60 mkg/ml alone, control 2048) was 256, the “dose as fraction of LD50” value [2] was 1/213 and the inhibition at 10 µM (Virus FPV; [3]) was 2.3%. The inhibition at 30 µM (Virus FPV; [3]) was 15.2%, the inhibition at 100 µM (Virus FPV; [3]) was 34.3% and the inhibition at 300 µM (Virus FPV; [3]) was 85%. For the same compound, the inhibition at 1000 µM (Virus FPV; [3]) was 99.2% and the “Inhibitionsprozent (Verminderung der Plaquebildung)” value (Virus FPV; DD-13 3x10^-4 M/1 alone) was 85,00%.
